Paper PMC12169614, “Exploring Long Arm Amide-Linked Side Chains in the Design of Antifungal Azole Inhibitors of Sterol 14α-Demethylase (CYP51)” (Journal of Medicinal Chemistry, 2025)

Legend:
[1] = tested on: Y2411 Endog. ScCYP51; assay: MIC80 determination, strain Y2411; format: cell-based, S. cerevisiae; settings: Saccharomyces cerevisiae
Experimental: (§1) Cells were seeded at an OD600 nm of 0.005 (1.5 × 10^4 CFU), and the plates were incubated at 30 °C with shaking at 200 rpm for 48 h for S. cerevisiae strains and 24 h for C. albicans . Cell growth was assessed by measuring the OD600 nm using a Synergy 2 multimode plate reader (BioTek Instruments, VT, USA). Each MIC80 was determined using triplicate measurements for pools of 4 clones of each strain in three separate experiments.

[2] = tested on: Y2300 OE ScCYP51; assay: MIC80 determination, strain Y2300; format: cell-based, S. cerevisiae; settings: Saccharomyces cerevisiae
Experimental: as §1

[3] = tested on: Y2301 OE ScCYP51 Y140F; assay: MIC80 determination, strain Y2301; format: cell-based, S. cerevisiae; settings: Saccharomyces cerevisiae
Experimental: as §1

[4] = tested on: Y2513 OE ScCYP51 Y140H; assay: MIC80 determination, strain Y2513; format: cell-based, S. cerevisiae; settings: Saccharomyces cerevisiae
Experimental: as §1

[5] = tested on: Y2459 OE CaCYP51 CaCpr; assay: MIC80 determination, strain Y2459; format: cell-based, S. cerevisiae
Experimental: as §1

[6] = tested on: Y525 OE CaMDR1a; assay: MIC80 determination, strain Y525; format: cell-based, S. cerevisiae
Experimental: as §1

[7] = tested on: Y570 OE CaCDR1B; assay: MIC80 determination, strain Y570; format: cell-based, S. cerevisiae
Experimental: as §1

[8] = tested on: Y71 SC5314; assay: MIC80 determination, C. albicans clinical isolate Y71 SC5314; format: cell-based; settings: Candida albicans
Experimental: as §1

[9] = tested on: Y1; assay: MIC80 determination, C. albicans clinical isolate Y1; format: cell-based; settings: Candida albicans, pH 7, 24 h
Experimental: as §1

[10] = tested on: Y610 FHB1; assay: MIC80 determination, C. albicans clinical isolate Y610 FHB1; format: cell-based; settings: Candida albicans; C. albicans clinical isolate Y610 FHB1 (weakly expresses CaCDR1); pH 7, 24 h
Experimental: as §1

[11] = tested on: Y611 FHB3; assay: MIC80 determination, C. albicans clinical isolate Y611 FHB3; format: cell-based; settings: Candida albicans, 24 h, pH 7
Experimental: as §1

[12] = tested on: Y2721 OE CpCYP51; assay: MIC80 determination, strain Y2721; format: cell-based, S. cerevisiae
Experimental: as §1

[13] = tested on: Y2716 OE CpCYP51 Y132F; assay: MIC80 determination, strain Y2716; format: cell-based, S. cerevisiae
Experimental: as §1

[14] = tested on: Y2374 OE CgCYP51; assay: MIC80 determination, strain Y2374; format: cell-based, S. cerevisiae; settings: Saccharomyces cerevisiae
Experimental: as §1

[15] = tested on: Y433 OE CgCDR1; assay: MIC80 determination, strain Y433; format: cell-based, S. cerevisiae; settings: Saccharomyces cerevisiae
Experimental: as §1

[16] = tested on: 2711 CnCYP51 OE CnCPR; assay: MIC80 determination, strain 2711; format: cell-based, S. cerevisiae
Experimental: as §1

[17] = tested on: Y2649 OE CYP51 F1 RaCPR; assay: MIC80 determination, strain Y2649; format: cell-based, S. cerevisiae
Experimental: as §1

[18] = tested on: Y2651 OE CYP51 F5 RaCPR; assay: MIC80 determination, strain Y2651; format: cell-based, S. cerevisiae; settings: Saccharomyces cerevisiae
Experimental: as §1

[19] = tested on: Y2746 OE AfCYP51A AfCPR AfERG6; assay: MIC80 determination, strain Y2746; format: cell-based, S. cerevisiae; settings: Saccharomyces cerevisiae
Experimental: as §1

[20] = tested on: Y2747 OE AfCYP51B AfCPR AfERG6; assay: MIC80 determination, strain Y2747; format: cell-based, S. cerevisiae
Experimental: as §1

[21] = tested on: Y2301 ScCYP51 Y140F mutant; assay: Agarose (disk) diffusion assay, strain Y2301; format: cell-based, S. cerevisiae; settings: 10 nmol/disk, 30 °C, 48 h
From the text: (§2) Final compounds were screened as racemic mixtures using agarose diffusion assays to visualize their inhibitory activity against a panel of recombinant S. cerevisiae strains i.e., S. cerevisiae strains expressing control levels of wild-type CYP51 (ScCYP51), overexpressed wild-type ScCYP51, overexpressed azole-resistant ScCYP51 Y140F/H mutations and overexpressed C. albicans efflux pumps MDR1a or CDR1B (Figure and Table S1).
(§3) The susceptibilities of S. cerevisiae and Candida species strains to azole compounds were observed as zones of growth inhibition in agarose diffusion assays. The disk diffusion assays were carried out as described by Keniya et al. Complete supplement mixture (CSM) agarose (0.6% agarose [wt/vol]; 20 mL of synthetic defined medium (SD); pH 6.8–7) was solidified in a rectangular Petri dish which was overlaid with CSM agarose (0.6% [wt/vol]; 5 mL; pH 6.8–7) seeded with yeast cells at an optical density (OD600) of 0.008 (118,000 cells per 1 mL of overlay). Azole compounds (10 nmol/disk) were applied to sterile BBL paper disks (Becton Dickinson Co., Sparks, MD) and placed on solidified overlays. Cell growth was assessed after incubation at 30 °C for 48 h.

[22] = tested on: Y2513 ScCYP51 Y140H mutant; assay: Agarose (disk) diffusion assay, strain Y2513; format: cell-based, S. cerevisiae; settings: 10 nmol/disk, 30 °C, 48 h
From the text: as §2, §3

[23] = tested on: Y525 MFS efflux pump CaMDR1a overexpressed; assay: Agarose (disk) diffusion assay, strain Y525; format: cell-based, S. cerevisiae; settings: 10 nmol/disk, 30 °C, 48 h
From the text: as §2, §3

[24] = tested on: Y570 ABC efflux pump CaCDR1B overexpressed; assay: Agarose (disk) diffusion assay, strain Y570; format: cell-based, S. cerevisiae; settings: 10 nmol/disk, 30 °C, 48 h
From the text: as §2, §3

[25] = tested on: Y2411 azole sensitive control strain; assay: Agarose (disk) diffusion assay, strain Y2411; format: cell-based, S. cerevisiae; settings: 10 nmol/disk, 30 °C, 48 h
From the text: as §2, §3

[26] = tested on: Y2300 ScCYP51 overexpressed; assay: Agarose (disk) diffusion assay, strain Y2300; format: cell-based, S. cerevisiae; settings: 10 nmol/disk, 30 °C, 48 h
From the text: as §2, §3

[27] = target: wild-type CaCYP51 (Candida albicans, UniProt P10613); assay: Reconstituted CYP51 activity assay, wild type; format: biochemical, C. albicans; settings: 1 μM CaCyp51, 50 μM lanosterol; duplicate, mean ± SD
Sequence of wild-type CaCYP51 (P10613 whole entry): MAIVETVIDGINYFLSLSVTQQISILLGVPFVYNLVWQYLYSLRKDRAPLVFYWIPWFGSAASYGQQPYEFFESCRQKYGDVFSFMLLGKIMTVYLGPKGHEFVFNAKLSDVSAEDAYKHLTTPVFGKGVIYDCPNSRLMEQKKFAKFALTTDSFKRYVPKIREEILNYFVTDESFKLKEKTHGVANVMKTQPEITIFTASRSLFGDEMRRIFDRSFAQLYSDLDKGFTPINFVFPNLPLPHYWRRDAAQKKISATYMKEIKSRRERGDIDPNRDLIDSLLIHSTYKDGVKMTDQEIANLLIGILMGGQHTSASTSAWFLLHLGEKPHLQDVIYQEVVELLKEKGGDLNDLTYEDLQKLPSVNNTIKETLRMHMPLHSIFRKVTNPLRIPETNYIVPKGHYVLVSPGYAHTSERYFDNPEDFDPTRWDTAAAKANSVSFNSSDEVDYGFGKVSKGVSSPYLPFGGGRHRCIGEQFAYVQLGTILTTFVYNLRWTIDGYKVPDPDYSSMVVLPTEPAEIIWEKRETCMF
Experimental: (§4) The reconstituted CYP51 assay previously described contained 1 μM CaCyp51, 2 μM Homo sapiens cytochrome P450 reductase and 50 μM lanosterol in a final volume of 500 μL. After the addition of azole in DMSO (2.5 μL), reactions were incubated at 37 °C for 10 min prior to initiation by the addition of 100 μL 20 mM β-NADPH-Na4. Sterol substrates and products were extracted with ethyl acetate, derivatized with N,O-bis(trimethylsilyl)-trifluoroacetamide (BSTFA)–trimethylchlorosilane (TMCS) (99:1) in the presence of anhydrous pyridine, and analyzed by GC/MS as described previously. IC50 determinations were performed in duplicate. Nonlinear regression of inhibitor concentration vs normalized response was calculated by GraphPad Prism 10.4.0 for Windows (GraphPad Software, Boston, Massachusetts, USA, www.graphpad.com).

[28] = target: CaCYP51 Y132H + K143R (Candida albicans, UniProt P10613, K143R/Y132H); assay: Reconstituted CYP51 activity assay, Y132H + K143R; format: biochemical, C. albicans; settings: 1 μM CaCyp51, 50 μM lanosterol; duplicate, mean ± SD
Sequence of CaCYP51 Y132H + K143R (P10613 whole entry Y132H/K143R): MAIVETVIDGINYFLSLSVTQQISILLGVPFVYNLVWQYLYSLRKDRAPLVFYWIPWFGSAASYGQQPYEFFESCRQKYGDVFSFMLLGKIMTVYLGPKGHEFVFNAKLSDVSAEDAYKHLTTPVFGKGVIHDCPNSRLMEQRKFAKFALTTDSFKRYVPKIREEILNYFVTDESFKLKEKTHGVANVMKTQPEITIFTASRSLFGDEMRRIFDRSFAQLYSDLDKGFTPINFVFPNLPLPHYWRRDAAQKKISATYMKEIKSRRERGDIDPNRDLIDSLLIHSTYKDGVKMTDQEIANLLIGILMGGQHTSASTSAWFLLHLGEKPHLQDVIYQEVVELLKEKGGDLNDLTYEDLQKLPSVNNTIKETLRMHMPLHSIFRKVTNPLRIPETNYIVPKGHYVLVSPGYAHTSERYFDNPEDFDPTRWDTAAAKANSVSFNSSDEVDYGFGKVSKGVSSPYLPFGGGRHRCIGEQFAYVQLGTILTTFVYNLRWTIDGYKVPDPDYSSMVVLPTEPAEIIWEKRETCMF
Experimental: as §4

[29] = target: CaCYP51 Y132F (Candida albicans, UniProt P10613, Y132F); settings: footnote b; ref number not given; cited from earlier work
Sequence of CaCYP51 Y132F (P10613 whole entry Y132F): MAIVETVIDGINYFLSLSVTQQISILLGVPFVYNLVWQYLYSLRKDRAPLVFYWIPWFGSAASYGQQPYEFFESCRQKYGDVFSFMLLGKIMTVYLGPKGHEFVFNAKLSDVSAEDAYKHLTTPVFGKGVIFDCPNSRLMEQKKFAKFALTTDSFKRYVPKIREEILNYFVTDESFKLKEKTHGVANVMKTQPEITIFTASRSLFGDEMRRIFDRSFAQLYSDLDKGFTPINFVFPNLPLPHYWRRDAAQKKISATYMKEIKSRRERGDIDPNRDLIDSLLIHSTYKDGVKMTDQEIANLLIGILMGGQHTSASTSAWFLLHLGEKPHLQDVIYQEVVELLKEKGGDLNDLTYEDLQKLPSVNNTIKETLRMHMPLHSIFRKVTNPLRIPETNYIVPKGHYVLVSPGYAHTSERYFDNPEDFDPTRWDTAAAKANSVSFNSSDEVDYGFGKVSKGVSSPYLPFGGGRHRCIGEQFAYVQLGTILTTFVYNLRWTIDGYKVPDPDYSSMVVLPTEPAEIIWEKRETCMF

[30] = target: CYP3A4 (Homo sapiens, UniProt P08684); parameters: method as in numbers not given; settings: literature values for azole antifungals; ref numbers not given; cited from earlier work
Sequence of CYP3A4 (P08684 whole entry): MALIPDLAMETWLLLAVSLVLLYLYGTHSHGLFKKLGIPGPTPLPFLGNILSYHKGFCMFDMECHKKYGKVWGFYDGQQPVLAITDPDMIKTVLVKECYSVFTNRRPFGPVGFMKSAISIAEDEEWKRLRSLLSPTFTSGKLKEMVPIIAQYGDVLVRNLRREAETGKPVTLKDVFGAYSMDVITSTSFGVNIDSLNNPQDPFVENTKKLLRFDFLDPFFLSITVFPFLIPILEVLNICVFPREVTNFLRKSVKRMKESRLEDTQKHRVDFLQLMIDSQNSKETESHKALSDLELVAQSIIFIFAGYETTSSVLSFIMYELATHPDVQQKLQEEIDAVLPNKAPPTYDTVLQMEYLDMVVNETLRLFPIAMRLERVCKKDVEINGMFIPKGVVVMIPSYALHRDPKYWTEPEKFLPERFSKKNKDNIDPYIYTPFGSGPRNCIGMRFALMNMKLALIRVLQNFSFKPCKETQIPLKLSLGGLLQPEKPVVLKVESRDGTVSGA

[31] = Saccharomyces cerevisiae, 48 h, pH 6.8

## O=C(NCC(O)(Cn1cncn1)c1ccc(F)cc1F)c1ccc2cc(F)ccc2c1 (centres unmarked) [Compound 14, N-(2-(2,4-Difluorophenyl)-2-hydroxy-3-(1H-1,2,4-triazol-1-yl)propyl)-6-fluoro-2-naphthamide]
[1]; strain Y2411 Endog. ScCYP51, SD pH 6.8, 30 °C, 48 h
  MIC80: 0.015 ± 0.003 µM
[1]; supplement csv, read-out: MIC (nM) S. cerevisiae Y2411
  MIC: 15 ± 3 nM
[2]; 48 h, pH 6.8
  MIC80: 0.048 ± 0.004 µM
[2]; read-out: MIC (nM) S. cerevisiae Y2300
  MIC: 48 ± 4 nM
[3]; 48 h, pH 6.8
  MIC80: 0.326 ± 0.048 µM
[3]; read-out: MIC (nM) S. cerevisiae Y2301
  MIC: 326 ± 48 nM
[4]; 48 h, pH 6.8
  MIC80: 0.632 ± 0.123 µM
[4]; read-out: MIC (nM) S. cerevisiae Y2513
  MIC: 632 ± 123 nM
[5]; [31]
  MIC80: 0.054 ± 0.021 µM
[5]; read-out: MIC (nM) C. albicans model Y2459
  MIC: 54 ± 21 nM
[6]; [31]
  MIC80: > 1 µM
[6]; read-out: MIC (nM) C. albicans model Y525
  MIC: > 1000 nM
[7]; Candida albicans, read-out: MIC (nM) C. albicans model Y570
  MIC: 33500 nM
[7]; [31]
  MIC80: 33.5 µM
[8]; SC5314, supplement csv
  MIC: 18 nM
[8]; C. albicans clinical isolate Y71 SC5314, pH 7, 24 h
  MIC80: 0.018 µM
[9]
  MIC80: 0.01 µM
[10]
  MIC80: 0.075 µM
[11]
  MIC80: 2.4 µM
[12]; Saccharomyces cerevisiae
  MIC80: 0.024 µM
[12]; read-out: MIC (nM) C. parapsilosis model Y2721
  MIC: 24 nM
[13]; MIC80 Y2716 versus Y2721
  increase in resistance owing to the CpCYP51 Y132F mutation: > 19 fold
[13]; Saccharomyces cerevisiae
  MIC80: 1 µM
[14]
  MIC80: 0.047 ± 0.006 µM
[14]; read-out: MIC (nM) C. glabrate model Y2374
  MIC: 47 ± 6 nM
[15]
  MIC80: 9.2 ± 0.707 µM
[16]; Saccharomyces cerevisiae
  MIC80: 0.005 µM
[16]; read-out: MIC (nM) C. neoformans model Y2711
  MIC: 5 nM
[17]; Rhizopus arrhizus, read-out: MIC (nM) R. arrhizus model Y2649
  MIC: 83 nM
[17]; Saccharomyces cerevisiae
  MIC80: 0.083 µM
[18]
  MIC80: 3.5 µM
[19]
  MIC80: > 15 µM
[20]; Aspergillus fumigatus, read-out: MIC (nM) A. fumigatus model Y2747
  MIC: 300 nM
[20]; Saccharomyces cerevisiae
  MIC80: 0.3 µM
[21]
  zone of growth inhibition (inhibitory activity in words): showed activity
[22]
  zone of growth inhibition (inhibitory activity in words): showed activity
[23]
  zone of growth inhibition (inhibitory activity in words): reduced effect
[24]
  zone of growth inhibition (inhibitory activity in words): no effect

## O=C(Nc1ccc(CNC(=O)C(Cn2cncn2)c2ccc(F)cc2F)cc1)c1ccc(Cl)cc1 (centres unmarked) [Compound 44, 4-Chloro-N-(4-((2-(2,4-difluorophenyl)-3-(1H-1,2,4-triazol-1-yl)propanamido)methyl)phenyl)benzamide]
[25]
  zone of growth inhibition (inhibitory activity in words): strongly inhibited
[26]
  zone of growth inhibition (inhibitory activity in words): strongly inhibited
[21]
  zone of growth inhibition (inhibitory activity in words): reduced activity
[22]
  zone of growth inhibition (inhibitory activity in words): reduced activity
[23]
  zone of growth inhibition (inhibitory activity in words): retained some inhibitory activity
[24]
  zone of growth inhibition (inhibitory activity in words): not the CaCDR1B expressing strain

## O=C(Nc1ccc(CNC(=O)C(Cn2cncn2)c2ccc(F)cc2F)cc1)c1cccnc1 (centres unmarked) [Compound 47, N-(4-((2-(2,4-Difluorophenyl)-3-(1H-1,2,4-triazol-1-yl)propanamido)methyl)phenyl)nicotinamide]
[25]
  zone of growth inhibition (inhibitory activity in words): poorly inhibited
[26]
  zone of growth inhibition (inhibitory activity in words): did not inhibit

## OC(Cn1cncn1)(Cn1cncn1)c1ccc(F)cc1F [FLC, fluconazole, reference compound]
[27]
  IC50: 0.335 ± 0.017 µM
[28]
  IC50: 25.7 ± 3.55 µM
[29]
  IC50: 0.606 ± 0.066 µM

## O[C@@](Cn1cnnn1)(c1ccc(F)cc1F)C(F)(F)c1ccc(-c2ccc(OCC(F)(F)F)cc2)cn1 [VT-1161, Oteseconazole]
[30]
  IC50: 140 µM
